Measurements reported in ChEMBL document CHEMBL3351471, “Antileishmanial metabolites from Geosmithia langdonii” (J Nat Prod, 2014).
pIC50: −log10 of the molar value.

tested on: Leishmania donovani; experiment: Antileishmanial activity against promastigote forms of Leishmania donovani by alamar blue assay; type: functional, organism-based

SMILES	pIC50	IC90 [µM]
O=Cc1cc(O)ccc1O	5.48	6.1
OCc1cc(O)cc(O)c1Cc1ccc(O)c(O)c1	4.89	22
CC1=C[C@H](O)[C@H]2O[C@H]2C1=O	5.16	10.8
OCc1cccc(O)c1	4.47	52.3
CC1=C[C@@H](O)[C@H](O)CC1=O (single isomer, unassigned)	4.33	61
C[C@@H]1[C@H](O)[C@@H](C)/C=C/C=C/C=C/C=C/C=C/C=C/C=C/[C@H](O[C@@H]2O[C@H](C)[C@@H](O)[C@H](N)[C@@H]2O)C[C@@H]2O[C@](O)(C[C@@H](O)C[C@@H](O)[C@H](O)CC[C@@H](O)C[C@@H](O)CC(=O)O[C@H]1C)C[C@H](O)[C@H]2C(=O)O [AMPHOTERICIN B]	–	0.4
OCc1cc(O)ccc1O [GENTISYL ALCOHOL]	5.07	10.4
Cc1cccc(O)c1 [METACRESOL]	5.04	12.4
N=C(N)c1ccc(OCCCCCOc2ccc(C(=N)N)cc2)cc1 [PENTAMIDINE]	5.49	5.9

tested on: Staphylococcus aureus; experiment: Antimicrobial activity against methicillin-resistant Staphylococcus aureus ATCC 33591; type: functional, organism-based

SMILES	pIC50
Cc1ccc(O)c(O)c1	4.14

tested on: Staphylococcus aureus; experiment: Antimicrobial activity against Staphylococcus aureus ATCC 29213; type: functional, organism-based

SMILES	pIC50
Cc1ccc(O)c(O)c1	3.83
